Measured values from patent US20240238423A9, “TETRAHYDROISOQUINOLINE HETEROBIFUNCTIONAL BCL-XL DEGRADERS” (Treeline Biosciences, Inc., priority 2022, published 2024).

Target: T1, Human BCL-XL protein (N-terminal HiBiT tagged BCL-XL in HT1080 cells) (Homo sapiens, UniProt Q07817)
T1 construct: expressed in transfected cells; host or cells: HT-1080 (ATCC CCL-121), stably transduced with lentivirus pLV-UBC-N-HiBiT-BCL-XL-PGK-puro and selected with puromycin
Test: HiBiT based degradation assay
Assay type: cell-based
Details: HT1080 cells expressing HiBiT-BCL-XL, 24 h; for Ymin (24 h): BCL-XL degradation normalized with DMSO control; for DC50: BCL-XL degradation, read-out: EC50 (24 h)
In short: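 This HiBiT degradation assay measured loss of BCL-XL in HT1080 cells that stably express an N-terminal HiBiT-BCL-XL fusion delivered by lentivirus. Cells were added to compound-spotted 384-well plates, and luminescence was read on a PHERAstar FSX reader. Signal was expressed relative to DMSO controls, curves were fitted by four-parameter logistic regression, and for hook-shaped curves the Ymin point served as the bottom plateau when calculating EC50.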

T1 sequence (Q07817 whole entry): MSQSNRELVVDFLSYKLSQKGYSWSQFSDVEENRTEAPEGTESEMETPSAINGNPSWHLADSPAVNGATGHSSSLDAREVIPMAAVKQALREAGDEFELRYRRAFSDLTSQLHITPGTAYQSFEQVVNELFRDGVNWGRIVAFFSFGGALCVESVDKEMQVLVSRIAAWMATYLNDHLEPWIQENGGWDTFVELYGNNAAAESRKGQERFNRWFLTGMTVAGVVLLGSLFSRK

| Ymin (24 h) | DC50 [nM] | Compound |
| --- | --- | --- |
| A (Ymin < 50%) | < 100 | Cc1c(O[C@H]2CC[C@H](CCCN3CCN(c4ccc5c(C6CCC(=O)NC6=O)nn(C)c5c4)[C@@H](C(F)(F)F)C3)CC2)cccc1-c1ccc(N2CCc3cccc(C(=O)Nc4nc5ccccc5s4)c3C2)nc1C(=O)O (stereo partly drawn) [Compound 301a, 6-(8-(benzo[d]thiazol-2-ylcarbamoyl)-3,4-dihydroisoquinolin-2(1H)-yl)-3-(3-(((1s,4r)-4-(3-((3R)-4-(3-(2,6-dioxopiperidin-3-yl)-1-methyl-1H-indazol-6-yl)-3-(trifluoromethyl)piperazin-1-yl)propyl)cyclohexyl)oxy)-2-methylphenyl)picolinic acid] |
| B (50% ≤ Ymin < 70%) | < 100 | Cc1c(O[C@H]2CC[C@H](CCCN3CCN(c4ccc5c(C6CCC(=O)NC6=O)nn(C)c5c4)[C@H](C(F)(F)F)C3)CC2)cccc1-c1ccc(N2CCc3cccc(C(=O)Nc4nc5ccccc5s4)c3C2)nc1C(=O)O (stereo partly drawn) [Compound 301b, 6-(8-(benzo[d]thiazol-2-ylcarbamoyl)-3,4-dihydroisoquinolin-2(1H)-yl)-3-(3-(((1r,4r)-4-(3-((3S)-4-(3-(2,6-dioxopiperidin-3-yl)-1-methyl-1H-indazol-6-yl)-3-(trifluoromethyl)piperazin-1-yl)propyl)cyclohexyl)oxy)-2-methylphenyl)picolinic acid] |
| B (50% ≤ Ymin < 70%) | < 100 | Cc1c(O[C@H]2CC[C@@H](CCCC3CCN(c4ccc5c(C6CCC(=O)NC6=O)nn(C)c5c4)CC3)CC2)cccc1-c1ccc(N2CCc3cccc(C(=O)Nc4nc5ccccc5s4)c3C2)nc1C(=O)O (some centres unmarked) [Compound 311a, 6-(8-(benzo[d]thiazol-2-ylcarbamoyl)-3,4-dihydroisoquinolin-2(1H)-yl)-3-(3-(((1r,4s)-4-(3-(1-(3-(2,6-dioxopiperidin-3-yl)-1-methyl-1H-indazol-6-yl)piperidin-4-yl)propyl)cyclohexyl)oxy)-2-methylphenyl) picolinic acid] |
| B (50% ≤ Ymin < 70%) | < 100 | Cc1c(O[C@H]2CC[C@H](CCCC3CCN(c4ccc5c(C6CCC(=O)NC6=O)nn(C)c5c4)CC3)CC2)cccc1-c1ccc(N2CCc3cccc(C(=O)Nc4nc5ccccc5s4)c3C2)nc1C(=O)O (some centres unmarked) [Compound 311b, 6-(8-(benzo[d]thiazol-2-ylcarbamoyl)-3,4-dihydroisoquinolin-2(1H)-yl)-3-(3-(((1s,4r)-4-(3-(1-(3-(2,6-dioxopiperidin-3-yl)-1-methyl-1H-indazol-6-yl)piperidin-4-yl)propyl)cyclohexyl)oxy)-2-methylphenyl)picolinic acid] |

Further lines, the compound ahead of its results:

| Compound | Ymin (24 h) | DC50 [nM] |
| --- | --- | --- |
| Cc1c(O[C@H]2CC[C@H](CCCCN3CCN(c4ccc5c(C6CCC(=O)NC6=O)nn(C)c5c4)C[C@@H]3C)CC2)cccc1-c1ccc(N2CCc3cccc(C(=O)Nc4nc5ccccc5s4)c3C2)nc1C(=O)O (stereo partly drawn) [Compound 297b, 6-(8-(benzo[d]thiazol-2-ylcarbamoyl)-3,4-dihydroisoquinolin-2(1H)-yl)-3-(3-(((1r,4r)-4-(4-((2S)-4-(3-(2,6-dioxopiperidin-3-yl)-1-methyl-1H-indazol-6-yl)-2-methylpiperazin-1-yl)butyl)cyclohexyl)oxy)-2-methylphenyl)picolinic acid] | A (Ymin < 50%) | < 100 |
| Cc1c(O[C@H]2CC[C@H](CCCCN3CCC(c4cccc5c(C6CCC(=O)NC6=O)nn(C)c45)CC3)CC2)cccc1-c1ccc(N2CCc3cccc(C(=O)Nc4nc5ccccc5s4)c3C2)nc1C(=O)O (some centres unmarked) [Compound 298a, 6-(8-(benzo[d]thiazol-2-ylcarbamoyl)-3,4-dihydroisoquinolin-2(1H)-yl)-3-(3-(((1s,4r)-4-(4-(4-(3-(2,6-dioxopiperidin-3-yl)-1-methyl-1H-indazol-7-yl)piperidin-1-yl)butyl)cyclohexyl)oxy)-2-methylphenyl)picolinic acid] | A (Ymin < 50%) | < 100 |
| Cc1c(O[C@H]2CC[C@H](CCCCN3CCC(c4ccc5c(C6CCC(=O)NC6=O)nn(C)c5c4)CC3)CC2)cccc1-c1ccc(N2CCc3cccc(C(=O)Nc4nc5ccccc5s4)c3C2)nc1C(=O)O (some centres unmarked) [Compound 299a, 6-(8-(benzo[d]thiazol-2-ylcarbamoyl)-3,4-dihydroisoquinolin-2(1H)-yl)-3-(3-(((1s,4r)-4-(4-(4-(3-(2,6-dioxopiperidin-3-yl)-1-methyl-1H-indazol-6-yl)piperidin-1-yl)butyl)cyclohexyl)oxy)-2-methylphenyl)picolinic acid] | A (Ymin < 50%) | < 100 |
| Cc1c(O[C@H]2CC[C@H](CCCCN3CCN(c4ccc5c(C6CCC(=O)NC6=O)nn(C)c5c4)[C@H](C)C3)CC2)cccc1-c1ccc(N2CCc3cccc(C(=O)Nc4nc5ccccc5s4)c3C2)nc1C(=O)O (stereo partly drawn) [Compound 300a, 6-(8-(benzo[d]thiazol-2-ylcarbamoyl)-3,4-dihydroisoquinolin-2(1H)-yl)-3-(3-(((1s,4r)-4-(4-((3R)-4-(3-(2,6-dioxopiperidin-3-yl)-1-methyl-1H-indazol-6-yl)-3-methylpiperazin-1-yl)butyl)cyclohexyl)oxy)-2-methylphenyl)picolinic acid] | A (Ymin < 50%) | < 100 |
| Cc1c(O[C@H]2CC[C@H](CCCCN3CCN(c4ccc5c(C6CCC(=O)NC6=O)nn(C)c5c4)[C@@H](C)C3)CC2)cccc1-c1ccc(N2CCc3cccc(C(=O)Nc4nc5ccccc5s4)c3C2)nc1C(=O)O (stereo partly drawn) [Compound 300b, 6-(8-(benzo[d]thiazol-2-ylcarbamoyl)-3,4-dihydroisoquinolin-2(1H)-yl)-3-(3-(((1r,4r)-4-(4-((3S)-4-(3-(2,6-dioxopiperidin-3-yl)-1-methyl-1H-indazol-6-yl)-3-methylpiperazin-1-yl)butyl)cyclohexyl)oxy)-2-methylphenyl)picolinic acid] | A (Ymin < 50%) | < 100 |
| Cc1c(OCCCC2CCN(CC(=O)Nc3ccc4c(C5CCC(=O)NC5=O)nn(C)c4c3F)CC2)cccc1-c1ccc(N2CCc3cccc(C(=O)Nc4nc5ccccc5s4)c3C2)nc1C(=O)O (centres unmarked) [Compound 302, 6-[8-(1,3-benzothiazol-2-ylcarbamoyl)-3,4-dihydro-1H-isoquinolin-2-yl]-3-[3-[3-[1-[2-[[3-(2,6-dioxo-3-piperidyl)-7-fluoro-1-methyl-indazol-6-yl]amino]-2-oxo-ethyl]-4-piperidyl]propoxy]-2-methyl-phenyl]pyridine-2-carboxylic acid] | B (50% ≤ Ymin < 70%) | < 100 |
| Cc1c(OCCCC2CCN(CCc3ccc4c(C5CCC(=O)NC5=O)nn(C)c4c3)CC2)cccc1-c1ccc(N2CCc3cccc(C(=O)Nc4nc5ccccc5s4)c3C2)nc1C(=O)O (centres unmarked) [Compound 303, 6-(8-(benzo[d]thiazol-2-ylcarbamoyl)-3,4-dihydroisoquinolin-2(1H)-yl)-3-(3-(3-(1-(2-(3-(2,6-dioxopiperidin-3-yl)-1-methyl-1H-indazol-6-yl)ethyl)piperidin-4-yl)propoxy)-2-methylphenyl)picolinic acid] | A (Ymin < 50%) | < 100 |
| Cc1c(OCCCC2CCN(Cc3ccc4c(C5CCC(=O)NC5=O)nn(C)c4c3)CC2)cccc1-c1ccc(N2CCc3cccc(C(=O)Nc4nc5ccccc5s4)c3C2)nc1C(=O)O (centres unmarked) [Compound 304, 6-(8-(benzo[d]thiazol-2-ylcarbamoyl)-3,4-dihydroisoquinolin-2(1H)-yl)-3-(3-(3-(1-((3-(2,6-dioxopiperidin-3-yl)-1-methyl-1H-indazol-6-yl)methyl)piperidin-4-yl)propoxy)-2-methylphenyl)picolinic acid] | B (50% ≤ Ymin < 70%) | < 100 |
| Cc1c(OCCCC2CCN(CCCc3ccc4c(C5CCC(=O)NC5=O)nn(C)c4c3)CC2)cccc1-c1ccc(N2CCc3cccc(C(=O)Nc4nc5ccccc5s4)c3C2)nc1C(=O)O (centres unmarked) [Compound 305, 6-(8-(benzo[d]thiazol-2-ylcarbamoyl)-3,4-dihydroisoquinolin-2(1H)-yl)-3-(3-(3-(1-(3-(3-(2,6-dioxopiperidin-3-yl)-1-methyl-1H-indazol-6-yl)propyl)piperidin-4-yl)propoxy)-2-methylphenyl)picolinic acid] | A (Ymin < 50%) | < 100 |
| Cc1c(OCCCC2CCN(C3CCN(c4ccc5c(C6CCC(=O)NC6=O)nn(C)c5c4)CC3)CC2)cccc1-c1ccc(N2CCc3cccc(C(=O)Nc4nc5ccccc5s4)c3C2)nc1C(=O)O (centres unmarked) [Compound 306, 6-(8-(benzo[d]thiazol-2-ylcarbamoyl)-3,4-dihydroisoquinolin-2(1H)-yl)-3-(3-(3-(1′-(3-(2,6-dioxopiperidin-3-yl)-1-methyl-1H-indazol-6-yl)-[1,4′-bipiperidin]-4-yl)propoxy)-2-methylphenyl)picolinic acid] | A (Ymin < 50%) | < 100 |
| Cc1c(OCCCc2ccc(CC(=O)Nc3ccc4c(C5CCC(=O)NC5=O)nn(C)c4c3)cn2)cccc1-c1ccc(N2CCc3cccc(C(=O)Nc4nc5ccccc5s4)c3C2)nc1C(=O)O (centres unmarked) [Compound 309, 6-[8-(1,3-benzothiazol-2-ylcarbamoyl)-3,4-dihydro-1H-isoquinolin-2-yl]-3-[3-[3-[5-[2-[[3-(2,6-dioxo-3-piperidyl)-1-methyl-indazol-6-yl]amino]-2-oxo-ethyl]-2-pyridyl]propoxy]-2-methyl-phenyl]pyridine-2-carboxylic acid] | B (50% ≤ Ymin < 70%) | 100 to 1000 |
| Cc1c(OCCCC2CCN(CC3CN(c4ccc5c(C6CCC(=O)NC6=O)nn(C)c5c4)C3)CC2)cccc1-c1ccc(N2CCc3cccc(C(=O)Nc4nc5ccccc5s4)c3C2)nc1C(=O)O (centres unmarked) [Compound 312, 6-(8-(benzo[d]thiazol-2-ylcarbamoyl)-3,4-dihydroisoquinolin-2(1H)-yl)-3-(3-(3-(1-((1-(3-(2,6-dioxopiperidin-3-yl)-1-methyl-1H-indazol-6-yl)azetidin-3-yl)methyl)piperidin-4-yl)propoxy)-2-methylphenyl)picolinic acid] | A (Ymin < 50%) | < 100 |
